One assay deals with T1, system xc− (Homo sapiens, UniProt Q9UPY5).
T1 construct: endogenous in cells; host or cells: HT-1080 (American Type Culture Collection)
T1 sequence (Q9UPY5 1-501): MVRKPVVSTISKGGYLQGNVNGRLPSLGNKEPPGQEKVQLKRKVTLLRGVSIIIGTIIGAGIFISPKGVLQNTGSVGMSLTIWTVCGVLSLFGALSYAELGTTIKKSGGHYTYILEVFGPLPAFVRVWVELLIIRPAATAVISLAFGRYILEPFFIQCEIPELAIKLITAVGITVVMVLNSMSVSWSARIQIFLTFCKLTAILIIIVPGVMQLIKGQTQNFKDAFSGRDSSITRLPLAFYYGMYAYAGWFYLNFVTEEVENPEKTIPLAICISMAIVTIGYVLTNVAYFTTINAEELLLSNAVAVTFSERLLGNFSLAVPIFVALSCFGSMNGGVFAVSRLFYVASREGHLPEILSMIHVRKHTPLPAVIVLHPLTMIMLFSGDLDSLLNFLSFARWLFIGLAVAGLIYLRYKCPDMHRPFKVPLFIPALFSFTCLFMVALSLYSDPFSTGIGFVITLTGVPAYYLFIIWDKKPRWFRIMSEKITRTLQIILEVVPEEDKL
T1 sequence (P08195 1-529 partner): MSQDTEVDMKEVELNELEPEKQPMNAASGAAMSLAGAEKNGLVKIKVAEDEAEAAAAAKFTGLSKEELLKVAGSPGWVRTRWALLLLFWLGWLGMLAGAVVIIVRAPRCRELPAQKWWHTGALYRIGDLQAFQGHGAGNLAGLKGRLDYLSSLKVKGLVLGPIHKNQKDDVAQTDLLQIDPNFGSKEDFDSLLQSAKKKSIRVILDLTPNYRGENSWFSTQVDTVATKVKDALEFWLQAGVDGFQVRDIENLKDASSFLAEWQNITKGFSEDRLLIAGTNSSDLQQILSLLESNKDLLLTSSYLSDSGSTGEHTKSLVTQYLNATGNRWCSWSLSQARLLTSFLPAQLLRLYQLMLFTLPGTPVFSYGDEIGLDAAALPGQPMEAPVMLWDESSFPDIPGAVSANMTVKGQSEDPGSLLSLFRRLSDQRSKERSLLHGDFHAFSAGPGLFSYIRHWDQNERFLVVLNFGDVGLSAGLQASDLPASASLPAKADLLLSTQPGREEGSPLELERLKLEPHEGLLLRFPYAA
In words: [14C]cystine uptake assay (Na+-independent). The assay is classed as cell-based. Particulars: HT-1080 cells; erastin 10 μM, glutamate 50 mM, SAS 1 mM. As to the method: 200,000 HT-1080 cells/well were seeded overnight in 6-well dishes (Corning). […] At this point, in each well the buffer was replaced with 600 μL uptake buffer containing compound and 0.12 μCi (80-110 mCi/mmol) of L-[3,3′-^14C]-cystine (Perkin Elmer) and incubated for 3 minutes at 37° C. Cells were then washed three times with ice-cold uptake buffer and lysed in 500 μL 0.1 M NaOH. To this lysate was added 15 mL of scintillation fluid and radioactive counts per minute were obtained using a scintillation counter. All measurements were performed in triplicate for each condition.

The test system of a further assay is Calu-1 cells. Kind of assay: Erastin-induced ferroptosis in Calu-1 cells with NOX pathway inhibitors. The class given is cell-based, human. The protocol:
(§1) Cell viability was typically assessed in 384-well format by Alamar Blue (Invitrogen) fluorescence (ex/em 530/590) measured on a Victor3 platereader (Perkin Elmer, Waltham, Mass.). In some experiments, Trypan Blue dye exclusion counting was performed using an automated cell counter (ViCell, Beckman-Coulter Inc., Brea, Calif.). Cell viability in test conditions is reported as a percentage relative to the negative control treatment.

Another assay concerns BJeLR cells. Kind of assay: Erastin-induced death and ROS production in BJeLR cells. The note with it: erastin 10 μM, 6-AN 200 μM. The assay is classed as cell-based, human. As to the method:
The day before the experiment, 200,000 cells/well were seeded in 6-well dishes (Corning Inc., Corning, N.Y.). The day of the experiment, cells were treated with test compounds for the indicated times, then harvested by trypsinization, resuspended in 500 μL Hanks Balanced Salt Solution (HBSS, Gibco, Invitrogen Corp., Carlsbad, Calif.) containing either H2DCFDA (25 μM), C11-BODIPY(581/591) (2 μM) or MitoSOX (5 μM) (all from Molecular Probes, Invitrogen) and incubated for 10 minutes at 37° C. in a tissue culture incubator. Cells were then resuspended in 500 μL of fresh HBSS, strained through a […] cell strainer (BD Falcon, BD Biosciences, San Jose, Calif.), and analyzed using a flow cytometer (FACSCalibur or Accuri C6, BD Biosciences), which was equipped with 488-nm laser for excitation. Data was collected from the FL1 (H2DCFDA, C11-BODIPY) or FL2 channel (MitoSOX). A minimum of 10,000 cells were analyzed per condition.
as §1

The test system of a further assay is BJeLR and HT-1080 cells. In words: Measurement of ATP levels. The assay is classed as cell-based, human. Particulars: normalized to viability. The protocol: ATP levels were evaluated using the ApoSENSOR ATP Assay Kit (Biovision Inc., Milpitas, Calif.) according to the manufacturer's instructions. 2000 HT-1080 or BJeLR cells were seeded in 96-well white bottom plates (Falcon). Cells were treated 12 hours later with compound as above for the TEM. Prior to luminescence measurement, medium was removed and cells were lysed and incubated with ATP Monitoring Enzyme. Luminescence was measured using a Victor3 platereader equipped with an infrared emission filter every 30 seconds for 10 minutes. Typically the first reading was used for data analysis. Parallel cell culture treatments were performed in 96-well clear bottom plates and cell viability was determined using Alamar Blue. These values were used to normalize ATP levels to cell viability.

The next assay relates to HT-1080 cells. In words: Erastin-induced death in HT-1080 cells with co-treated inhibitors (viability, microscopy). The assay is classed as cell-based, human. Particulars: HT-1080 cells. The protocol:
as §1
Phase contrast images were acquired using an AMG EVOS FL (Advanced Microscopy Group) microscope equipped with a 10× phase-contrast objective. Three independent fields were acquired for each experimental condition. Representative samples from one field of view are shown.

Assay [1] has as its system SLC7A11 mRNA in HT-1080 cells. Kind of assay: SLC7A11 mRNA levels by RT-qPCR. The class given is cell-based, human. The protocol: RNA was extracted using the Qiashredder and Qiagen RNeasy Mini kits (Qiagen) according to the manufacturer's protocol. 2 μg total RNA for each sample was used as input for each reverse transcription reaction, performed using the TaqMan RT kit (Applied Biosystems, Life Technologies Corp., Carlsbad, Calif.). Primer pairs were designed for target transcripts using Primer Express 2.0 (Applied Biosystems). Quantitative PCR reactions were performed using the Power SYBR Green PCR Master Mix (Applied Biosystems). Triplicate samples per condition were analyzed on an Applied Biosystems 7300 qPCR instrument using absolute quantification settings. Differences in mRNA levels compared to HPRT1 or ACTB internal reference control were computed between control and experimental conditions using the ΔΔCt method.
A general note: Real-time PCR tracks product formation cycle by cycle.

Eight compounds from US9580398B2, “Compounds, compositions, and methods for modulating ferroptosis and treating excitotoxic disorders” (The Trustees of Columbia University in the City of New York, priority 2012, dated 2017) can be followed below.

With `N[C@@H](CCC(=O)O)C(=O)O` [glutamate], the “Na+-independent uptake of [14C]cystine” value on system xc− is recorded as “abolished”.

`NC(=O)c1ccc(N)nc1` [6-AN, 6-aminonicotinamde]: in the assay with Calu-1 cells, the “suppression of erastin-induced ferroptosis in Calu-1” value (shortened to “suppression”) was “strongly suppressed”. Moreover, the “cell death and ROS production in erastin-treated BJeLR” value in the assay on BJeLR cells is recorded as “prevented cell death as well as ROS production”.

For `O=C(O)c1cc(/N=N/c2ccc(S(=O)(=O)Nc3ccccn3)cc2)ccc1O` [SAS, sulfasalazine], the “Na+-independent uptake of [14C]cystine” value at system xc− is given as “abolished”.

Regarding `OO` [H2O2], the “intracellular ATP” value with BJeLR and HT-1080 cells was “substantial depletion of intracellular ATP”.

On to `OCCS` [β-ME, β-mercaptoethanol, reference compound], for which the “inhibition of cell death induced by erastin, SAS and glutamate” value with HT-1080 cells was “strongly inhibited cell death”. Moreover, the “effect on erastin/SAS-induced SLC7A11 upregulation” value in assay [1] is listed as “suppressed”.

For the compound `COC(=O)c1ccc([C@@H]2c3[nH]c4ccccc4c3C[C@@H](C(=O)OC)N2C(=O)CCl)cc1` [RSL3], the “Na+-independent uptake of [14C]cystine” value at system xc− is “had no effect”.

Regarding `c1ccc2c(c1)[I+]c1ccccc1-2` [DPI, diphenylene iodonium], the “suppression” value in the assay on Calu-1 cells is recorded as “strongly suppressed”.

With `CN(C)c1cccc(-c2c3c(=O)n(-c4ccccc4Cl)[nH]c3cc(=O)n2C)c1` [GKT137831], the “suppression” value in the assay with Calu-1 cells is “strongly suppressed”.
